These results are taken from patent publication US5658906A, “Cysteine protease and serine protease inhibitors” (Cephalon, Inc., priority 1996, dated 1997).

Test [1] deals with calpain I in Molt-4 cells (α-spectrin breakdown products). The experiment in a line: Inhibition of calpain activation in intact Molt-4 cells (calpain-generated spectrin breakdown products). The class given is cell-based. Particulars: Homo sapiens, calcium and ionophore (ionomycin), read-out: % Inhibition of BDPs (10 μM).
The target of test [2] is T1, Cathepsin B (Homo sapiens, UniProt P07858).
T1 construct: purchased Calbiochem 219364
The experiment in a line: Inhibition and rate of inactivation of cathepsin B (Cbz-Phe-Arg-AMC hydrolysis). The class given is biochemical. Particulars: pH 6.0, 0.1 mM substrate, read-out: k2 (second order rate constant of inactivation), C = Cathepsin B. As to the method:
Additionally, the order of reagents added to the plate was altered because both enzymes are constitutively active. Following inhibitor addition to the plates appropriate 2× concentrated stock dilutions of the enzyme preparations were made in assay buffer and 100 ul added to each well. The assay was initiated by addition of 100 ul of 2× concentrated stock dilution of substrate in assay buffer. Substrate hydrolysis was monitored using a Fluroskan II (ex=390 nm; em=460 nm).
Inhibition of enzyme activity was calculated as the percent decrease in the rate of substrate hydrolysis in the presence of inhibitor (.upsilon.i) relative to the rate in its absence (.upsilon.o). Comparison between .upsilon.o and .upsilon.i was made within the linear range for substrate hydrolysis. For screening, compounds were tested at 10 μM. Compounds having ≥50% inhibition at 10 μM were considered active. Apparent second order rate constants were determined from analysis of reaction progress curves under pseudo-first order conditions. Each determination represents the mean of three or more independent single cuvette analyses continually monitored via a Perkin-Elmer LS50B spectrofluorimeter. The rate of inhibition of hydrolysis was obtained by fitting the curve to the exponential equation (1):
y=Ae^-k.spsb.obs·t +B (1)
where y (Pt) is the product formed at time t. A and B are constants. A, the amplitude of the reaction, is given by [Po -P.varies. ] and B (=P.varies.) is the maximal product formed when the reaction is […]. This was corrected for the presence of equation (2): […]

Test [3] has as its target T2, Calpain I (Homo sapiens, UniProt P07384).
T2 construct: Calpain I was purified from human red blood cells; from tissue; host or cells: human red blood cells (packed, outdated)
T2 sequence (P07384 1-714): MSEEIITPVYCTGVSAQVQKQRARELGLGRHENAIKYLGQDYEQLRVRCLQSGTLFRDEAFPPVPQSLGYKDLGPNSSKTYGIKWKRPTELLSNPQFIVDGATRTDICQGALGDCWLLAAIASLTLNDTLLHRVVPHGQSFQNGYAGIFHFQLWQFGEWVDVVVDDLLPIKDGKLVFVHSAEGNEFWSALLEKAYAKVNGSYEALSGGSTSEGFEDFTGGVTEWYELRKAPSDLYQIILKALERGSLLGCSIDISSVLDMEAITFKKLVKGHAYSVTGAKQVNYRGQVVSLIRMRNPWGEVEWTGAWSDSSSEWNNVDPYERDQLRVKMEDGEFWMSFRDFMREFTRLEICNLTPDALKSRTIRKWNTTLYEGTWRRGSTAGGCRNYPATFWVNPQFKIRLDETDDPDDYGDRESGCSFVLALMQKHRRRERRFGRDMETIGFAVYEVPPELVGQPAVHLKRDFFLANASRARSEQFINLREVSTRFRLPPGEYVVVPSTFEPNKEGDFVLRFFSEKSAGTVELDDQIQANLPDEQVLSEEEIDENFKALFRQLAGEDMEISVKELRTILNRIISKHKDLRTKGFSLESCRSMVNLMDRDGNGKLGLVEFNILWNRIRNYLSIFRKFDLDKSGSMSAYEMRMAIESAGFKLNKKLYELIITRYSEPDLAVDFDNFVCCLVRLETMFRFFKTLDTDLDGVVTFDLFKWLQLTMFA
T2 sequence (P04632 1-268 partner): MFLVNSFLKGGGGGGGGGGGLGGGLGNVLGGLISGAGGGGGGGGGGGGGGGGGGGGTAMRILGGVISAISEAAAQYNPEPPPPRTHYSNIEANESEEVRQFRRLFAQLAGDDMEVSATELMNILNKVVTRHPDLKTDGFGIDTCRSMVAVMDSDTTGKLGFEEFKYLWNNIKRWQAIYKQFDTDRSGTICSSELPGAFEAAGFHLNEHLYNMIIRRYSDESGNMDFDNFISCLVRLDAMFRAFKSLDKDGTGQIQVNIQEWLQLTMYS
Put plainly: Inhibition and rate of inactivation of calpain I (Succ-Leu-Tyr-MNA hydrolysis). Particulars: mean of three or more independent analyses, corrected for substrate, k2 = kapp(1+[S]/Km), read-out: k2 (second order rate constant of inactivation), A = Calpain I. The class given is biochemical. As to the method:
To evaluate inhibitory activity of our compounds, stocks (40 times concentrated) of each compound to be tested were prepared in 100% anhydrous dimethyl sulfoxide (DMSO) and 5 μl of each inhibitor preparation was aliquoted into each of three wells of a 96 well plate. Calpain I was purified from human red blood cells using a modification of the method described by Lee, W. J. et al. (Biochem. Internatl. (1990)22(1): 163-171). Briefly, 3 units of packed outdated red blood cells were washed 3× by repeated centrifugation at 500 rpm for 10 minutes through 900 mls of 0.9% NaCl. Cells were lysed in 20 mM Tris/1 mM EDTA/1 mM EGTA/5 mM mercaptoethanol (Buffer A) and centrifuged for 1 hour at 12,000 rpm in a GSA rotor using a Sorval centrifuge. The supernatant was collected and applied to a DEAE-sepharose FF column equilibrated in Buffer A+25 mM NaCl. After washing the column in Buffer A+25 mM NaCl, the bound protein was eluted at 117 ml/hr with a 25 mM to 150 mM NaCl linear gradient in Buffer A collecting 200, 10 mL fractions. Two μl of every fifth fraction was applied to nitrocelluose using a dot blot apparatus and calpain containing fractions identified by Western analysis. For detection of calpain, nitrocellulose sheets were first blocked in 5% Blotto (5% Carnation instant milk/10 mM Tris/[…]150 mM NaCl) for 30 minutes, followed by incubation for 1 hour in antibody directed against Calpain I (rabbit anti-human calpain I polyclonal sera, 1:1000 dilution in 5% Blotto). After three 5 minutes washes in 10 mM Tris/150 mM NaCl/0.05% Tween 20 the nitrocellulose was incubated for 1 hour in secondary alkaline phosphatase conjugated antibody (Biorad Cat#170-6518 1:2000 in 5% Blotto). After three 5 minutes washes in 10 mM Tris/150 mM NaCl/0.05% Tween 20 and 1 wash in 10 mM Tris/150 mM NaCl the nitrocellulose was incubated for up to 2 hours in a colorimetric substrate solution (Biorad Alkaline Phosphatase Substrate conjugate kit, cat#170-6432). The reaction was stopped by washing in water. After fractions containing calpain, and those in between, were pooled, solid ammonium sulfate was added to achieve a 30% solution and the mixture stirred for 1 hour at 4° C. Following collection of the precipitate by centrifugation for 1 hour at 4° C. at 12K rpm in a GSA rotor, the supernatant was collected and brought to 45% in ammonium sulfate. After stirring for 1 hour at 4° C., centrifugation was repeated. The supernatant was discarded and the precipitate resuspended in approximately 7 mls and dialyzed overnight at 4° C. against Buffer A+50 mM NaCl. The sample was then applied to a S300 gel filtration column preequilibrated in Buffer A+50 mM NaCl, washed and eluted at a flow rate of 20 ml/hr, collecting 200, 4 ml fractions. The peak of calpain was determined by assaying aliquots of every fifth fraction for enzyme activity monitored by the hydrolysis of a fluorogenic dipeptide substrate as described below. The peak fractions were pooled and the enzyme preparation used to test compounds for inhibitory activity. As an alternate to enzyme isolated from tissue sources, recombinant human calpain I has also been used to monitor compounds for inhibitory activity.
The foregoing enzyme preparation was diluted into assay buffer (i.e., 50 mM Tris, 50 mM NaCl, 1 mM EDTA, 1 mM EGTA, and 5 mM β-mercaptoethanol, pH 7.5 including 0.2 mM Succ-Leu-Tyr-MNA) and 175 μl aliquoted into the same wells containing the independent inhibitor stocks as well as to positive control wells containing 5 μl DMSO, but no compound. To start the reaction, 20 μl of 50 mM CaCl2 in assay buffer was added to all wells of the plate, excepting three, which were used as background signal baseline controls. Substrate hydrolysis was monitored every 5 minutes for a total of 30 minutes using Flouroskan II (ex=340 nm; em=430 nm). Substrate hydrolysis in the absence of inhibitor was linear for up to 15 minutes. […]

Test [4] concerns the target T3, α-chymotrypsin (Bos taurus, UniProt P00766).
T3 construct: purchased Sigma Chem. Co. C-3142
The experiment in a line: Inhibition of the serine protease α-chymotrypsin (Succ-Ala-Ala-Pro-Phe-AMC hydrolysis). The class given is biochemical. The following applies: pH 7.5, 0.03 mM substrate. As to the method: Additionally,because α-chymotrypsin is not a calcium sensitive enzyme and is constituitively active, following addition of inhibitor stocks to the 96 well plates, 100 ul of a 2 fold concentrated stock of enzyme in dilution buffer was first added and the reaction started by addition of 100 ul of a 2 fold concentrated stock of substrate in assay buffer. Substrate hydrolysis was monitored every 5 minutes up to 30 minutes using a Fluoroskan II ([…]).

Take `CC(C)C[C@H](NC(=O)OCc1ccccc1)C(=O)N[C@@H](Cc1ccccc1)C(=O)COn1nnc2c(F)c(F)ccc21` [Example 25, 1-[N-[N-Benzyloxycarbonyl-L-leucyl]-3S-4-phenyl-3-amino-2-oxybutyloxy]-4',5'-difluorobenzotriazole]: the inhibition (usually the drop in the measured response relative to a control, in per cent) at 10 µM in test [1] was found to be 52%. For the same compound, the kinact/KI in test [2] amounted to 300000 M⁻¹ s⁻¹; in test [3] it was 67000 M⁻¹ s⁻¹.
Regarding `CC(C)C[C@H](NC(=O)OCc1ccccc1)C(=O)N[C@@H](Cc1ccccc1)C(=O)COn1cnc2ccccc21` [Example 22, 1-[N-[N-Benzyloxycarbonyl-L-leucyl]-(3S)-4-phenyl-3-amino-2-oxybutyloxy]benzimidazole], the inhibition at 10 µM in test [1] amounted to 61%; in test [4] it was 91%. Moreover, the kinact/KI in test [3] was 4000 M⁻¹ s⁻¹.
As to `CC(C)C[C@H](NC(=O)[C@H](CC(C)C)NC(=O)OCc1ccccc1)C(=O)COn1nnc2ccccc21` [Example 4, 1-[N-[N-Benzyloxycarbonyl-L-leucyl]-3S-5-methyl-3-amino-2-oxohexyloxy]benzotriazole], the inhibition at 10 µM in test [1] came out at 57%. The kinact/KI in test [2] came to 19000 M⁻¹ s⁻¹; in test [3] it was 175000 M⁻¹ s⁻¹.
